{"source": "patent US12195744B2", "about": "“Identification of T-cell trafficking genes and uses thereof for increasing infiltration of T-cells into solid tumors” (UNIVERSITY OF IOWA RESEARCH FOUNDATION, priority 2017, dated 2025)", "key": {"[1]": {"test_system": "primary mouse CD8+ T cells", "assay": "PD-1 expression after in vitro treatment of primary mouse CD8+ T cells", "assay_type": "cell-based", "conditions": "activated primary mouse CD8+ T cells, measured at days 6, 7, 8 and 9", "method": "FIG. 9 illustrates the results of in vitro treatment of primary mouse CD8+ T cells with Aak1 inhibitor (iAak1 aka LP-935509) on PD-1 expression. Primary mouse CD8+ T cells were treated with the indicated concentration of LP-935509 and PD-1 expression was measured at days 6, 7, 8, and 9."}, "[2]": {"test_system": "primary mouse CD8+ T cells", "assay": "Cell proliferation after in vitro treatment of primary mouse CD8+ T cells", "assay_type": "cell-based", "conditions": "primary mouse CD8+ T cells treated on day 0, optionally activated, assessed days 1-7", "method": "FIG. 10 illustrates the results of in vitro treatment of primary mouse CD8+ T cells with Aak1 inhibitor (iAak1) on cell proliferation. Primary mouse CD8+ T cells were treated on day 0 with the indicated concentration of LP-935509 and optionally activated. Cell proliferation was assessed at days 1, 2, 3, 4, 5, 6, and 7."}, "[3]": {"test_system": "primary mouse splenocytes", "assay": "PD-1 expression on CD8+ T cells after in vitro treatment of primary mouse splenocytes", "assay_type": "cell-based", "conditions": "mouse splenocytes treated with 2 μM iAak1 in vitro", "method": "FIG. 11 illustrates the results of in vitro treatment of primary mouse splenocytes with Aak1 inhibitor (iAak1) on PD-1 expression. Mouse splenocytes were treated with 2 μM concentration of iAak1 and PD-1 expression was assayed in CD8+ T cells."}, "[4]": {"test_system": "EG7 tumors", "assay": "Growth of EG7 tumors in mice", "assay_type": "in vivo", "conditions": "oral gavage on same days as twice weekly IP aPD1, from 3 days post inoculation, vs DMSO", "source_text": "(§1) FIG. 12 illustrates the results of Aak1 inhibitor (iAak1) on the growth of EG7 tumors in mice. Mice were inoculated with EG7 tumor cells. Treatment began three (3) days post tumor inoculation. All mice received twice weekly IP injections of aPD1. Five (5) mice received DMSO, and five (5) mice received iAak1 via oral gavage on same days as aPD1 treatment."}, "[5]": {"test_system": "CD8+ T cells in EG7 tumor model", "assay": "PD-1 expression in tumor-infiltrating versus splenic CD8+ T cells in EG7 tumor model", "assay_type": "in vivo, mice", "conditions": "oral gavage with twice weekly IP aPD1, vs DMSO, listed as iAak1", "source_text": "as §1, with “FIG. 13” for “FIG. 12”, “on PD-1 expression in tumor-infiltrating versus splenic CD8+ T cells in an” for “on the growth of”, “EG7 tumor model.” for “EG7 tumors in mice.”, “received Aak1inh” for “received iAak1”"}, "[6]": {"test_system": "EG7 cells", "assay": "Growth of EG7 cells in vitro", "assay_type": "cell-based", "conditions": "concentrations as high as 2 μM; listed as iAak1", "source_text": "FIG. 14 illustrates the results of Aak1 inhibitor (iAak1) on growth of EG7 cells in vitro."}, "[7]": {"test_system": "A20 tumors", "assay": "Growth of A20 tumors in mice", "assay_type": "in vivo", "source_text": "as §1, with “15” for “12”, “A20” for “EG7”, “ten (10)” for “three (3)”, “Ten (10)” for “Five (5)”, “ten (10)” for “five (5)”, “daily.” for “on same days as aPD1 treatment.”"}}, "note": "Entries after “also recorded” stand apart in the source; their conditions may differ."}
{"smiles": "COc1ncccc1-c1cnn2ccc(N3CCN(C(=O)OC(C)C)CC3)nc12", "note": "[LP-935509]", "values": [{"measurement": "PD-1 expression", "setting": "[1]", "value": "transient increase"}, {"measurement": "cell proliferation", "setting": "[2]", "value": "modest enhancement"}, {"measurement": "cell proliferation", "setting": "[2]; listed as iAak1", "value": "modestly enhances"}, {"measurement": "PD-1 expression in CD8+ T cells", "setting": "[3]", "value": "modest increase; also recorded: increases"}, {"measurement": "EG7 tumor growth in vivo", "setting": "[4]", "value": "increased"}, {"measurement": "PD-1 expression in CD8+ T cells isolated from tumors", "setting": "[5]", "value": "increased"}, {"measurement": "EG7 cell proliferation in vitro", "setting": "[6]", "value": "not observed to directly increase; also recorded: did not directly increase"}, {"measurement": "CD3+ T cell infiltration of the tumor", "setting": "[7]; A20 tumors, daily oral gavage with twice weekly IP aPD1, vs DMSO", "value": "moderate inhibit"}, {"measurement": "A20 tumor growth in vivo", "setting": "[7]; daily oral gavage with twice weekly IP aPD1, from 10 days post inoculation, vs DMSO, listed as iAak1", "value": "increased; also recorded: enhanced"}]}
